From patent US7939064B2 (priority 2006, dated 2011)

System: transient cerebral focal ischemia (left middle cerebral artery occlusion)
Conditions: rat, in vivo

C[C@]12N[C@H](Cc3ccccc31)c1ccccc12 [MK801, dizocilpine, reference compound]
infarct volume relative to saline-treated control: 61.1%±8.6% | reduction of focal ischemia / infarct size (summary statement): 40%
